# Experimental data: patent US9212201B2, “Antifungal and antiparasitic polyene macrolides” (priority 2010, dated 2015)
# Assays:
# A. fumigatus = test: In vitro antifungal susceptibility CLSI M38-A (MIC); type: cell-based; settings: A. fumigates, 6 isolates
# Method: (§1) In addition, MFC ([…]) was done for each species. The geometric mean (GM) was calculated for each isolate using all three results. All testing was performed in triplicate to verify the reproducibility of the data.
# (§2) A total of 31 isolates of Aspergillus were evaluated. This included six different species of Aspergillus which included six strains of A. fumigatus, and 5 strains of A. flavus, A. terreus, A. niger and A. glaucus.
# A. niger = test: as above; type: cell-based; settings: 5 isolates
# Method: as §1, §2
# A. flavus = test: as above; type: cell-based; settings: 5 isolates
# Method: as §1, §2
# A. glaucus = test: as above; type: cell-based; settings: 5 isolates
# Method: as §1, §2
# A. versicolor = test: as above; type: cell-based; settings: 5 isolates
# Method: as §1, §2
# A. terreus = test: as above; type: cell-based; settings: 5 isolates
# Method: as §1, §2
# [1] = tested on: Candida albicans (ATCC 44858); settings: 3 mg/kg PO; 15-day observation
# C. lusitaniae = test: In vitro antifungal susceptibility CLSI M27-A2 (MIC, MFC); type: cell-based; settings: C. lusitaniae (10)
# Histoplasma capsulatum = type: cell-based; settings: 4 of the H isolates
# C. krusei = test: In vitro antifungal susceptibility CLSI M27-A2 (MIC, MFC); type: cell-based; settings: C. krusei (10)
# Blastomyces dermatitidis = test: Broth macrodilution MIC/MFC against endemic fungal pathogens; type: cell-based; settings: for MFC: >96% kill of the inoculum
# C. albicans = test: In vitro antifungal susceptibility CLSI M27-A2 (MIC, MFC); type: cell-based; settings: C. albicans (10)
# [2] = human, in vivo; cited from earlier work
# [3] = Blastomyces dermatitidis isolate 1
# [4] = Blastomyces dermatitidis isolate 2
compound,measurement,setting,value
"C[C@@H]1[C@H](O)[C@@H](C)/C=C/C=C/C=C/C=C/C=C/C=C/C=C/[C@H](O[C@@H]2O[C@H](C)[C@@H](O)[C@H](N)[C@@H]2O)C[C@@H]2O[C@](O)(C[C@@H](O)C[C@@H](O)[C@H](O)CC[C@@H](O)C[C@@H](O)CC(=O)O[C@H]1C)C[C@H](O)[C@H]2C(=O)O [Amphotericin B, amphotericin B]",GM,A. fumigatus,1.58 µg/mL
same,MIC50,A. fumigatus,2 µg/mL
same,MIC Range,A. fumigatus,0.5 to 2 µg/mL
same,GM,A. niger,0.8 µg/mL
same,MIC50,A. niger,1 µg/mL
same,MIC Range,A. niger,0.5 to 1 µg/mL
same,GM,A. flavus,4.8 µg/mL
same,MIC50,A. flavus,2 µg/mL
same,MIC Range,A. flavus,2 to 16 µg/mL
same,GM,A. glaucus,0.7 µg/mL
same,MIC50,A. glaucus,0.5 µg/mL
same,MIC Range,A. glaucus,0.25 to 1 µg/mL
same,GM,A. versicolor,0.9 µg/mL
same,MIC50,A. versicolor,1 µg/mL
same,MIC Range,A. versicolor,0.25 to 2 µg/mL
same,GM,A. terreus,2.0 µg/mL
same,MIC50,A. terreus,2 µg/mL
same,MIC Range,A. terreus,2 to 4 µg/mL
same,increase in survival rate,[1],80%
same,GM (geometric mean MIC),C. lusitaniae,0.575 µg/mL
same,MFC,C. lusitaniae,0.5 µg/mL
same,MIC50,C. lusitaniae,0.5 µg/mL
same,MIC90,C. lusitaniae,1.0 µg/mL
same,MIC Range,C. lusitaniae,0.25 to 1.0 µg/mL
same,MFC,Histoplasma capsulatum,0.5 µg/mL
same,MIC,Histoplasma capsulatum,0.5 µg/mL
same,GM (geometric mean MIC),C. krusei,1.29 µg/mL
same,MFC,C. krusei,2 µg/mL
same,MIC50,C. krusei,1 µg/mL
same,MIC90,C. krusei,2 µg/mL
same,MIC Range,C. krusei,0.5 to 2.0 µg/mL
same,MIC50,C. krusei; listed as amphotericin B,1.0 µg/mL
same,MIC,Blastomyces dermatitidis; [3],2/2 mcg/mL
same,MFC,Blastomyces dermatitidis; [3],2/2 mcg/mL
same,MIC,Blastomyces dermatitidis; [4],1/1 mcg/mL
same,MFC,Blastomyces dermatitidis; [4],1/1 mcg/mL
same,GM (geometric mean MIC),C. albicans,0.612 µg/mL
same,MFC,C. albicans,1 µg/mL
same,MIC50,C. albicans,0.5 µg/mL
same,MIC90,C. albicans,1 µg/mL
same,MIC Range,C. albicans,0.12 to 1 µg/mL
same,patients with nephrotoxicity,[2],≤ 80%
